From PubChem BioAssay (NCI)
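GI50 is the concentration that inhibits growth by half. TGI is the concentration that stops growth completely.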

Columns and labels:
Assay in all cases: NCI anticancer screen, dose series, 384-well format
SR leukemia = system: SR leukemia
A498 renal = system: A498 renal
NCI/ADR-RES ovarian = system: NCI/ADR-RES ovarian
NCI-H226 lung = system: NCI-H226 lung
OVCAR-3 ovarian = system: OVCAR-3 ovarian
SW-620 colon = system: SW-620 colon
HCT-15 colon = system: HCT-15 colon
NCI-H460 NSCLC = system: NCI-H460 NSCLC
KM12 colon = system: KM12 colon
MCF7 breast = system: MCF7 breast
HL-60(TB) leukemia = system: HL-60(TB) leukemia
SF-268 CNS = system: SF-268 CNS
MDA-MB-231 breast = system: MDA-MB-231 breast
PC-3 prostate = system: PC-3 prostate
SK-MEL-28 melanoma = system: SK-MEL-28 melanoma
K-562 leukemia = system: K-562 leukemia
LOX IMVI melanoma = system: LOX IMVI melanoma
HOP-62 NSCLC = system: HOP-62 NSCLC
OVCAR-4 ovarian = system: OVCAR-4 ovarian
MDA-MB-435 melanoma = system: MDA-MB-435 melanoma
ACHN renal = system: ACHN renal
T-47D breast = system: T-47D breast
NCI-H322M lung = system: NCI-H322M lung
HCT-116 colon = system: HCT-116 colon
OVCAR-8 ovarian = system: OVCAR-8 ovarian
NCI-H522 lung = system: NCI-H522 lung
SF-539 CNS = system: SF-539 CNS
EKVX NSCLC = system: EKVX NSCLC
HOP-92 NSCLC = system: HOP-92 NSCLC
IGROV1 ovarian = system: IGROV1 ovarian
HCC-2998 colon = system: HCC-2998 colon
HS 578T breast = system: HS 578T breast
CAKI-1 renal = system: CAKI-1 renal
BT-549 breast = system: BT-549 breast
UO-31 renal = system: UO-31 renal
MALME-3M melanoma = system: MALME-3M melanoma
TK-10 renal = system: TK-10 renal
SF-295 CNS = system: SF-295 CNS
MDA-MB-468 breast = system: MDA-MB-468 breast
UACC-257 melanoma = system: UACC-257 melanoma
DU-145 prostate = system: DU-145 prostate
OVCAR-5 ovarian = system: OVCAR-5 ovarian
RXF 393 renal = system: RXF 393 renal
NCI-H23 lung = system: NCI-H23 lung
HT29 colon = system: HT29 colon
A549 NSCLC = system: A549 NSCLC
MOLT-4 leukemia = system: MOLT-4 leukemia
M14 melanoma = system: M14 melanoma
SNB-19 CNS = system: SNB-19 CNS
SK-MEL-5 melanoma = system: SK-MEL-5 melanoma
RPMI-8226 leukemia = system: RPMI-8226 leukemia
CCRF-CEM leukemia = system: CCRF-CEM leukemia
SN12C renal = system: SN12C renal
COLO 205 colon = system: COLO 205 colon
SNB-75 CNS = system: SNB-75 CNS
U251 glioblastoma = system: U251 glioblastoma
SK-OV-3 ovarian = system: SK-OV-3 ovarian
786-0 renal = system: 786-0 renal

`COc1c/c(=C2/C=c3ccccc3=N2)[nH]/c1=C/c1[nH]c(C)cc1C` was tested, and the GI50 (SR leukemia) was 20.7 nM, the TGI (SR leukemia) was 35.3 nM and the GI50 (A498 renal) was 81 nM. For the same compound, the TGI (A498 renal) was 1070 nM, the GI50 (NCI/ADR-RES ovarian) was 20.5 nM and the TGI (NCI/ADR-RES ovarian) was 40.5 nM. It also gave a GI50 (NCI-H226 lung) of 15.3 nM, a TGI (NCI-H226 lung) of 32.3 nM and a GI50 (OVCAR-3 ovarian) of 14.3 nM. The TGI (OVCAR-3 ovarian) was 34.6 nM, the GI50 (SW-620 colon) was 22.2 nM and the TGI (SW-620 colon) was 47.2 nM. The GI50 (HCT-15 colon) was 17.9 nM, the TGI (HCT-15 colon) was 35.2 nM and the GI50 (NCI-H460 NSCLC) was 19.5 nM. It also gave a TGI (NCI-H460 NSCLC) of 41 nM, a GI50 (KM12 colon) of 27.8 nM and a TGI (KM12 colon) of 99.8 nM. It also gave a GI50 (MCF7 breast) of 32 nM, a TGI (MCF7 breast) of 106 nM and a GI50 (HL-60(TB) leukemia) of 17.3 nM. The TGI (HL-60(TB) leukemia) was 31.6 nM, the GI50 (SF-268 CNS) was 19.3 nM and the TGI (SF-268 CNS) was 88.6 nM. For the same compound, the GI50 (MDA-MB-231 breast) was 19.3 nM, the TGI (MDA-MB-231 breast) was 52.7 nM and the GI50 (PC-3 prostate) was 17.8 nM. It also gave a TGI (PC-3 prostate) of 76.8 nM, a GI50 (SK-MEL-28 melanoma) of 24.4 nM and a TGI (SK-MEL-28 melanoma) of 61.8 nM. It also gave a GI50 (K-562 leukemia) of 62.9 nM, a TGI (K-562 leukemia) of 244 nM and a GI50 (LOX IMVI melanoma) of 17.7 nM. It also gave a TGI (LOX IMVI melanoma) of 32.4 nM, a GI50 (HOP-62 NSCLC) of 24.1 nM and a TGI (HOP-62 NSCLC) of 77.3 nM. It also gave a GI50 (OVCAR-4 ovarian) of 24.2 nM, a TGI (OVCAR-4 ovarian) of 158 nM and a GI50 (MDA-MB-435 melanoma) of 23.6 nM. For the same compound, the TGI (MDA-MB-435 melanoma) was 53.2 nM, the GI50 (ACHN renal) was 32.5 nM and the TGI (ACHN renal) was 123 nM. For the same compound, the GI50 (T-47D breast) was 50.2 nM, the TGI (T-47D breast) was 194 nM and the GI50 (NCI-H322M lung) was 56.4 nM. The TGI (NCI-H322M lung) was 1140 nM, the GI50 (HCT-116 colon) was 17.2 nM and the TGI (HCT-116 colon) was 33.1 nM. For the same compound, the GI50 (OVCAR-8 ovarian) was 19.6 nM, the TGI (OVCAR-8 ovarian) was 43.1 nM and the GI50 (NCI-H522 lung) was 33.5 nM. The TGI (NCI-H522 lung) was 220 nM, the GI50 (SF-539 CNS) was 31.6 nM and the TGI (SF-539 CNS) was 83.2 nM. It also gave a GI50 (EKVX NSCLC) of 24.5 nM, a TGI (EKVX NSCLC) of 81.2 nM and a GI50 (HOP-92 NSCLC) of 23.9 nM. It also gave a TGI (HOP-92 NSCLC) of 67.1 nM, a GI50 (IGROV1 ovarian) of 30.9 nM and a TGI (IGROV1 ovarian) of 99.1 nM. For the same compound, the GI50 (HCC-2998 colon) was 17.1 nM, the TGI (HCC-2998 colon) was 69 nM and the GI50 (HS 578T breast) was 26.3 nM. For the same compound, the TGI (HS 578T breast) was 77.9 nM, the GI50 (CAKI-1 renal) was 45.2 nM and the TGI (CAKI-1 renal) was 269 nM. The GI50 (BT-549 breast) was 15.6 nM, the TGI (BT-549 breast) was 58.2 nM and the GI50 (UO-31 renal) was 18.8 nM. The TGI (UO-31 renal) was 35.3 nM, the GI50 (MALME-3M melanoma) was 27.2 nM and the TGI (MALME-3M melanoma) was 64.3 nM. It also gave a GI50 (TK-10 renal) of 25.2 nM, a TGI (TK-10 renal) of 65.5 nM and a GI50 (SF-295 CNS) of 35.1 nM. The TGI (SF-295 CNS) was 155 nM, the GI50 (MDA-MB-468 breast) was 197 nM and the TGI (MDA-MB-468 breast) was 587 nM. The GI50 (UACC-257 melanoma) was 24.7 nM, the TGI (UACC-257 melanoma) was 53.7 nM and the GI50 (DU-145 prostate) was 33.8 nM. For the same compound, the TGI (DU-145 prostate) was 1060 nM, the GI50 (OVCAR-5 ovarian) was 33 nM and the TGI (OVCAR-5 ovarian) was 1230 nM. It also gave a GI50 (RXF 393 renal) of 14.2 nM, a TGI (RXF 393 renal) of 51.6 nM and a GI50 (NCI-H23 lung) of 24.7 nM. It also gave a TGI (NCI-H23 lung) of 63 nM, a GI50 (HT29 colon) of 21.9 nM and a TGI (HT29 colon) of 54.8 nM. For the same compound, the GI50 (A549 NSCLC) was 120 nM, the TGI (A549 NSCLC) was 385 nM and the GI50 (MOLT-4 leukemia) was 14.9 nM. It also gave a TGI (MOLT-4 leukemia) of 28.7 nM, a GI50 (M14 melanoma) of 22.3 nM and a TGI (M14 melanoma) of 52.7 nM. For the same compound, the GI50 (SNB-19 CNS) was 54.5 nM, the TGI (SNB-19 CNS) was 1290 nM and the GI50 (SK-MEL-5 melanoma) was 19.4 nM. It also gave a TGI (SK-MEL-5 melanoma) of 37.3 nM, a GI50 (RPMI-8226 leukemia) of 19.7 nM and a TGI (RPMI-8226 leukemia) of 39.8 nM. The GI50 (CCRF-CEM leukemia) was 16.4 nM, the TGI (CCRF-CEM leukemia) was 32.8 nM and the GI50 (SN12C renal) was 40.6 nM. It also gave a TGI (SN12C renal) of 178 nM, a GI50 (COLO 205 colon) of 24.6 nM and a TGI (COLO 205 colon) of 68.9 nM. The GI50 (SNB-75 CNS) was 32.8 nM, the TGI (SNB-75 CNS) was 85.2 nM and the GI50 (U251 glioblastoma) was 36.5 nM. The TGI (U251 glioblastoma) was 132 nM, the GI50 (SK-OV-3 ovarian) was 52.3 nM and the TGI (SK-OV-3 ovarian) was 293 nM. For the same compound, the GI50 ([…]-0 renal) was 13.8 nM and the TGI (786-0 renal) was 33.8 nM.
